Laboratory results reported in patent US20050074879A1, “Antisense oligonucleotide modulation of STAT3 expression” (priority 2000, published 2005).
Oligonucleotides are written 5' to 3', each unit as a sugar letter and its base; * is a phosphorothioate linkage, no mark a phosphodiester; rarer units and linkages stand in square brackets, end groups in braces. Plain capitals give the bases only. e = 2'-O-(2-methoxyethyl) (MOE); [5mC] = 5-methylcytosine; d = 2'-deoxy (DNA)

Legend:
MIP1b mRNA = assay: Induction of chemokines in BCL1 cells, RNase protection assay: MIP1b; format: cell-based, mouse; conditions: CpG oligonucleotide induced
Experimental: (§1) The effect of ISIS 17152 (SEQ ID. NO. 99) on chemokine levels was determined. BCL1 cells were grown, treated and processed as described in Example 2. Chemokine gene expression was induced in BCL1 cells by addition of […] of a CpG-containing oligonucleotide to the media 16 hours following antisense oligonucleotide electroporation. CpG-containing oligonucleotides are immune-stimulatory (Krieg, A. M., et al., Nature, 1995, 374, 546-549). The levels of chemokines were measured eight hours later using RNase protection assay as described in Example 2 with a mouse chemokine template set, Mck-5 (Pharmingen, San Diego, Calif.).

RANTES mRNA = assay: Induction of chemokines in BCL1 cells, RNase protection assay: RANTES; format: cell-based, mouse; conditions: CpG oligonucleotide induced
Experimental: as §1

MIP1a mRNA = assay: Induction of chemokines in BCL1 cells, RNase protection assay: MIP1a; format: cell-based, mouse; conditions: CpG oligonucleotide induced
Experimental: as §1

[1] = system: U266 multiple myeloma cells; assay: Apoptosis of U266 cells, Annexin-V staining, flow cytometry; format: cell-based, human
Experimental: U266 cells (ATCC, Bethesda, Md.) were cultured in RPMI 1640 medium supplemented with 10% heat-inactivated fetal bovine serum (Sigma Chemical Company, St. Louis, Mo.), 10 mM Hepes, pH 7.2, […] 2-ME, 2mM L-glutamine, 100 U/ml penicillin, and 100 µg/ml streptomycin (Gibco, Grand Island, N.Y.).
2′-O-methoxyethylribose modified phosphorothioate oligonucleotides were synthesized on an automated DNA synthesizer (Applied Biosystems model 380B), as described above. Chimeric oligonucleotides were employed in these studies; the chimeric oligonucleotides contain 2′-O-methoxyethyl modified residues flanking a 2′-deoxynucleotide/phosphorothioate region (gap) that supports RNase H activation. Oligonucleotides were analyzed by capillary gel electrophoresis and judged to be at least 85% full-length material. U266 (1×10^7 cells in PBS) were transfected with oligonucleotides by electroporation, at 175V, 1000 μF using a BTX Electro Cell Manipulator 600 (Genetronics, San Diego, Calif.).
10×10^6 U266 cells were electroporated with oligonucleotides and cultured for 48 hours before analysis of phosphatidylserine expression was performed as a measure of apoptosis using the Annexin-V staining kit (Clontech, Palo Alto, Calif.) according to the manufacturer's instructions. […] The samples were then diluted with FacsFlow buffer and analyzed on a Becton Dickinson FACScan (Mountain View, Calif.).

Human STAT3 mRNA [2] = assay: Inhibition of human STAT3 mRNA expression in U266 cells, Northern blot; format: cell-based
Experimental: U266 human myeloma cell lines (originally obtained from American Type Culture Collection) were maintained in RPMI 1640 medium supplemented with 10% fetal calf serum. Cells (15×10^6 cells in PBS) were transfected with oligonucleotides at 200V with a single 6-millisecond pulse using a BTX Electro Square Porator T820 (Genetronics, San Diego Calif.). The cells were incubated for 24 hours before RNA extraction.
Total cellular RNA was isolated using the Rneasy kit (Qiagen, Santa Clarita, Calif.). Northern blotting was perfomed on 15 μg of RNA using a cDNA probe prepared from MB-MDA 468 RNA by standard RT-PCR followed by a nested primer reaction. Signals were quantitated using a Molecular Dynamics Phosphorimager.
In order to examine the importance of STAT3 expression in multiple myeloma cells, a series of 20mer STAT3 antisense oligonucleotides were designed and synthesized, using phosphorothioate chemistry and incorporating 2′-O-methoxyethyl modifications to improve hybridization affinity and nuclease resistance.

Human STAT3 mRNA [3] = assay: STAT3 mRNA in A549 cells treated with dsRNAs (duplex antisense compounds), real-time PCR PPS 199 (Table 22); format: cell-based; conditions: treated 4 hours, harvested 16 hours later, − decrease, + increase vs untreated control
Experimental: When cells reached 80% confluency, they are treated with duplexed antisense compounds of the invention. For cells grown in 96-well plates, wells are washed once with […] OPTI-MEM-1 reduced-serum medium (Gibco BRL) and then treated with 130 μL of OPTI-MEM-1 containing 12 μg/mL LIPOFECTIN (Gibco BRL) and the desired duplex antisense compound at a final concentration of 200 nM (a ratio of 6 μg/mL LIPOFECTIN per 100 nM duplex antisense compound). After 5 hours of treatment, the medium is replaced with fresh medium. Cells are harvested 16 hours after treatment, at which time RNA is isolated and target reduction measured by RT-PCR.
The compounds in Table 21 were tested for their effects on human STAT3 expression in A549 cells. ISIS 330249 targets the same site as the antisense oligonucleotid ISIS 106734 (SEQ ID NO: 45) and ISIS 330247 targets the same site as the antisense oligonucleotide ISIS 113176 (SEQ ID NO: 115); thus, ISIS 106734 and ISIS 113176 were also tested. A549 cells were treated with oligonucleotide mixed with LIPOFECTIN (Invitrogen Corporation, Carlsbad, Calif.) as described herein. The control oligonucleotide used was ISIS 129698 ([…], SEQ ID NO: 402). Cells were treated with oligonucleotide for 4 hours and harvested an additional 16 hours later. Untreated cells served as a control.
Human STAT3 mRNA expression levels were quantitated by real-time PCR using primer probe set PPS 199 and gene target quantities were normalized using Ribogreen as described in other examples herein. A “−” or “+” designation indicates a decrease or increase of STAT 3 mRNA expression, respectively, relative to untreated control cells. Where present, “N.D.” indicates not determined.

23178 (antisense eA*eA*eA*eA*eA*dC*dT*dC*dC*dG*dC*dT*dG*dA*dA*eT*eG*e[5mC]*e[5mC]*e[5mC]) [compound 23178]
% MIP1b mRNA (MIP1b mRNA; dose 5 nM): 96.5%
% MIP1b mRNA (MIP1b mRNA; dose 10 nM): 87.1%
% MIP1b mRNA (MIP1b mRNA; dose 20 nM): 73.3%
% RANTES mRNA (RANTES mRNA; dose 5 nM, control 100%): 96%
% RANTES mRNA (RANTES mRNA; dose 10 nM): 70.2%
% RANTES mRNA (RANTES mRNA; dose 20 nM): 56%
% MIP1a mRNA (MIP1a mRNA; dose 5 nM): 123%
% MIP1a mRNA (MIP1a mRNA; dose 10 nM): 116%
% MIP1a mRNA (MIP1a mRNA; dose 20 nM): 106%

113176 (antisense eG*e[5mC]*eT*e[5mC]*e[5mC]*dA*dG*d[5mC]*dA*dT*d[5mC]*dT*dG*d[5mC]*dT*eG*e[5mC]*eT*eT*e[5mC]) [compound 113176]
annexin V staining (in words) [1]: increased levels of annexin V staining
Percent inhibition of STAT3 expression (Human STAT3 mRNA [2]; Oligo concentration 2.5 μM): 33%
Percent inhibition of STAT3 expression (Human STAT3 mRNA [2]; Oligo concentration 5 μM): 67%
Percent inhibition of STAT3 expression (Human STAT3 mRNA [2]; Oligo concentration 10 μM): 79%
% mRNA INHIBITION (Human STAT3 mRNA [2]; U266 cells, 2.5 μM oligonucleotide, electroporation, 24 hours): 27.7%
% mRNA EXPRESSION (Human STAT3 mRNA [2]; U266 cells, 2.5 μM oligonucleotide, electroporation, 24 hours, percent of control): 72.3%
Percent change in STAT3 mRNA expression in A549 cells by duplex antisense compounds (Human STAT3 mRNA [3]; 12.5 nM oligonucleotide): +8%
Percent change in STAT3 mRNA expression in A549 cells by duplex antisense compounds (Human STAT3 mRNA [3]; 25 nM oligonucleotide): +17%
Percent change in STAT3 mRNA expression in A549 cells by duplex antisense compounds (Human STAT3 mRNA [3]; 50 nM oligonucleotide): +6%
Percent change in STAT3 mRNA expression in A549 cells by duplex antisense compounds (Human STAT3 mRNA [3]; 100 nM oligonucleotide): 0%
Percent change in STAT3 mRNA expression in A549 cells by duplex antisense compounds (Human STAT3 mRNA [3]; 200 nM oligonucleotide): −22%
Percent change in STAT3 mRNA expression in A549 cells by duplex antisense compounds (Human STAT3 mRNA [3]; 400 nM oligonucleotide): −34%
